# Results: patent US4529602A, “Method for treatment or prophylaxis of gastro-intestinal disease” (priority 1981, dated 1985)
# Counter-ions that a name gives are not always drawn.
# Columns and labels:
# pepsin secretion = experiment: Preventive effect on pepsin secretion in pylorus-ligated rats; format: in vivo, Male SD-strain rats; settings: 100 mg/kg oral, 5 h after administration
# Experimental: (§1) Preventive effect on acid and pepsin secretions
# (§2) Male SD-strain rats (6 to 7 weeks old) were starved for 48 hours, and then the pylori were ligated. Immediately after ligation, a solution or suspension of a test compound in distilled water was administered orally into the stomachs in an amount of 0.2 ml per 100 g of body weight (Dose: 100 mg/kg). Five hours after said administration of the test compound, the rats were sacrificed and the stomachs were removed. The gastric contents were centrifuged at 2,500 rpm for 10 minutes and the gastric juice was collected as the supernatant. The concentration of pepsin in the gastric juice was determined by Anson's method (c.f., J. Gen. Physiol., 22, pp. 77-89 (1938)) using hemoglobin as the substrate, and the preventive effect of the test compound on the pepsin secretion was estimated in terms of "decrease in pepsin concentration" according to the following formula: [formula]
# gastric acid secretion = experiment: Preventive effect on gastric acid secretion in pylorus-ligated rats; format: in vivo, Male SD-strain rats; settings: 100 mg/kg oral, 5 h after administration
# Experimental: as §1, §2
# On the other hand, the concentration of free acid in the gastric juice was determined by titrating said gastric juice to pH 7.0 with 0.1N NaOH, and the preventive effect of the test compound on the gastric acid secretion was estimated in terms of "the decrease in acidity of gastric juice" according to the following formula: [formula] (Results)
# aspirin-induced ulcers = experiment: Effect on aspirin-induced ulcers; format: in vivo, Male Donryu-strain rats; settings: aspirin 200 mg/kg
# Experimental: Male Donryu-strain rats (8 to 9 weeks old) were starved overnight, and a solution or suspension of a test compound in distilled water was administered orally into the stomachs in an amount of one ml per 100 g of body weight. Half an hour later, a suspension of aspirin in 0.25% CMC solution was administered orally to the rats in an amount of 0.5 ml per 100 g of body weight (Dose: 200 mg/kg). Four hours after the administration of aspirin, the rats were sacrificed and the stomachs were removed and inflated by injecting 10 ml of 1% formalin solution to fix the inner layers of the gastric walls. The stomach was then incised along the greater curvature and the lengths of the lesions were measured and summated to give ulcer index (in mm) for each animal. The preventive effect of the test compound on aspirin-induced ulcers were calculated by the following formula: [formula] (Results)
compound,measurement,setting,value
"CC(C)c1cc2c(cc1S(=O)(=O)O)[C@@]1(C)CCC[C@@](C)(C(=O)O)[C@@H]1CC2 [2 (2-Dimethylaminoethyl)amine salt, sulfodehydroabietic acid di(2-dimethylaminoethylamine)salt monohydrate]",Decrease (%) in pepsin concentration,pepsin secretion; monohydrate,92%
same,Decrease (%) in acidity of gastric juice,gastric acid secretion; monohydrate,31%
"CC(C)c1cc2c(cc1S(=O)(=O)O)[C@@]1(C)CCC[C@@](C)(C(=O)O)[C@@H]1CC2 [2 (2-Methoxyethyl)amine salt, sulfodehydroabietic acid di(2-methoxyethylamine)salt]",Decrease (%) in pepsin concentration,pepsin secretion,98%
"CC(C)c1cc2c(cc1S(=O)(=O)O)[C@@]1(C)CCC[C@@](C)(C(=O)O)[C@@H]1CC2 [2 Cyclohexylamine salt, sulfodehydroabietic acid di(cyclohexylamine)salt]",Decrease (%) in pepsin concentration,pepsin secretion,71%
"CC(C)c1cc2c(cc1S(=O)(=O)O)[C@@]1(C)CCC[C@@](C)(C(=O)O)[C@@H]1CC2 [2 Isopropylamine salt, sulfodehydroabietic acid di(isopropylamine)salt]",Decrease (%) in pepsin concentration,pepsin secretion,95%
same,Decrease (%) in acidity of gastric juice,gastric acid secretion,40%
"CC(C)c1cc2c(cc1S(=O)(=O)O)[C@@]1(C)CCC[C@@](C)(C(=O)O)[C@@H]1CC2 [2 Morpholine salt, sulfodehydroabietic acid dimorpholine salt hemihydrate]",Decrease (%) in pepsin concentration,pepsin secretion; hemihydrate,92%
"CC(C)c1cc2c(cc1S(=O)(=O)O)[C@@]1(C)CCC[C@@](C)(C(=O)O)[C@@H]1CC2 [2/3 Aluminum salt, sulfodehydroabietic acid 2/3 aluminum ssalt 7/3 hydrate]",Decrease (%) in pepsin concentration,pepsin secretion; hydrate,95%
"CC(C)c1cc2c(cc1S(=O)(=O)O)[C@@]1(C)CCC[C@@](C)(C(=O)O)[C@@H]1CC2 [Carnosine salt, sulfodehydroabietic acic carnosine salt monohydrate]",Decrease (%) in pepsin concentration,pepsin secretion; monohydrate,72%
same,Preventive effect on aspirin-induced ulcers,"aspirin-induced ulcers; p.o. 2 m mol./kg (1,248 mg/kg)",33%
"CC(C)c1cc2c(cc1S(=O)(=O)O)[C@@]1(C)CCC[C@@](C)(C(=O)O)[C@@H]1CC2 [Ethylenediamine salt, sulfodehydroabietic acid ethylenediamine salt hemihydrate]",Decrease (%) in pepsin concentration,pepsin secretion; hemihydrate,94%
"CC(C)c1cc2c(cc1S(=O)(=O)O)[C@@]1(C)CCC[C@@](C)(C(=O)O)[C@@H]1CC2 [Hexamethylenediamine salt, sulfodehydroabietic acid hexamethylenediamine salt hemihydrate]",Decrease (%) in pepsin concentration,pepsin secretion; hemihydrate,94%
same,Decrease (%) in acidity of gastric juice,gastric acid secretion; hemihydrate,32%
"CC(C)c1cc2c(cc1S(=O)(=O)O)[C@@]1(C)CCC[C@@](C)(C(=O)O)[C@@H]1CC2 [L-Arginine salt, sulfodehydroabietic acid L-arginine salt hemihydrate]",Decrease (%) in pepsin concentration,pepsin secretion; hemihydrate,77%
"CC(C)c1cc2c(cc1S(=O)(=O)O)[C@@]1(C)CCC[C@@](C)(C(=O)O)[C@@H]1CC2 [L-Asparagine salt, sulfodehydroabietic acid L-asparagine salt monohydrate]",Decrease (%) in pepsin concentration,pepsin secretion; monohydrate,90%
same,Decrease (%) in acidity of gastric juice,gastric acid secretion; monohydrate,38%
"CC(C)c1cc2c(cc1S(=O)(=O)O)[C@@]1(C)CCC[C@@](C)(C(=O)O)[C@@H]1CC2 [L-Glutamine salt, sulfodehydroabietic acid L-glutamine salt hemihydrate]",Decrease (%) in pepsin concentration,pepsin secretion; hemihydrate,90%
same,Decrease (%) in acidity of gastric juice,gastric acid secretion; hemihydrate,39%
"CC(C)c1cc2c(cc1S(=O)(=O)O)[C@@]1(C)CCC[C@@](C)(C(=O)O)[C@@H]1CC2 [L-Lysine salt, sulfodehydroabietic acid L-lysine salt monohydrate]",Decrease (%) in pepsin concentration,pepsin secretion; monohydrate,94%
"CC(C)c1cc2c(cc1S(=O)(=O)O)[C@@]1(C)CCC[C@@](C)(C(=O)O)[C@@H]1CC2 [L-S--Methylmethionine salt, sulfodehydroabietic acid S-methyl-L-methionine salt dihydrate]",Decrease (%) in pepsin concentration,pepsin secretion; dihydrate,84%
same,Preventive effect on aspirin-induced ulcers,"aspirin-induced ulcers; p.o. 2 m mol./kg (1,086 mg/kg)",85%
"CC(C)c1cc2c(cc1S(=O)(=O)O)[C@@]1(C)CCC[C@@](C)(C(=O)O)[C@@H]1CC2 [Tetramethylenediamine salt, sulfodehydroabietic acid tetramethylenediamine salt hemihydrate]",Decrease (%) in pepsin concentration,pepsin secretion; hemihydrate,84%
same,Decrease (%) in acidity of gastric juice,gastric acid secretion; hemihydrate,36%
sulfodehydroabietic acid (aluminum monohydroxide) [Aluminum monohydroxide salt],Decrease (%) in pepsin concentration,pepsin secretion,91%
sulfodehydroabietic acid di(aluminum dihydroxide)salt dihydrate [2 Aluminum dihydroxide salt],Decrease (%) in pepsin concentration,pepsin secretion,69%
